The target in data set [1] is T1, Replicase polyprotein 1ab (Severe acute respiratory syndrome coronavirus 2, UniProt P0DTD1). Briefly: Inhibition of SARS-Cov-2 RdRp expressed in HEK293T cells co-transfected with pCoV-Gluc and pCOVID-nsp12/7/8 incubated for 24 hrs by microplate luminometric analysis. The format is cell-based.
The nature of data set [2]: Cytotoxicity against HEK293T cells assessed as reduction in cell viability incubated for 24 hrs by CCK-8 assay. The format is toxicity, cell-based, HEK-293T. The settings on record: human. Background: Tetrazolium dyes change colour on reduction, which living cells bring about.
For data set [3], the target named is Replicase polyprotein 1ab (Severe acute respiratory syndrome coronavirus 2) (UniProt P0DTD1). Briefly: Inhibition of SARS-Cov-2 RdRp expressed in HEK293T cells co-transfected with pCoV-Gluc and pCOVID-nsp12/7/8 at 10 uM incubated for 24 hrs by microplate luminometric analysis relative to control. The format is cell-based.
Data set [4] has as its target T1, Replicase polyprotein 1ab. Briefly: Inhibition of SARS-Cov-2 RdRp expressed in HEK293T cells co-transfected with pCoV-Gluc and pCOVID-nsp12/7/8/10/14 assessed as tolerance to proof reading activity of nsp14/10 exonuclease incubated for 24 hrs by microplate luminometric analysis. The format is cell-based.
Data set [5] addresses Replicase polyprotein 1ab (Severe acute respiratory syndrome coronavirus 2) (UniProt P0DTD1). Briefly: Inhibition of SARS-Cov-2 RdRp expressed in HEK293T cells co-transfected with pCoV-Gluc and pCOVID-nsp12/7/8 assessed as reduction in viral negative strand Gluc-RNA level incubated for 24 hrs by qRT-PCR analysis. The format is cell-based.
For data set [6] the target is unchanged. Briefly: Inhibition of SARS-Cov-2 RdRp expressed in HEK293T cells co-transfected with pCoV-Gluc and pCOVID-nsp12/7/8 at 3 uM incubated for 24 hrs by microplate luminometric analysis. The format is cell-based.
The target is the same in data set [7]. Briefly: Inhibition of SARS-Cov-2 RdRp expressed in HEK293T cells co-transfected with pCoV-Gluc and pCOVID-nsp12/7/8 assessed as reduction in viral positive strand Gluc-RNA level incubated for 24 hrs by qRT-PCR analysis. The format is cell-based. For orientation: Real-time PCR tracks product formation cycle by cycle.
The subject of data set [8] is Human coronavirus OC43. Briefly: Antiviral activity against HCoV OC43 infected in human HCT-8 cells assessed as inhibition of viral replication pre-infected for 1 hrs followed by compound administration and measured 120 hrs post-infection by MTS assay. The format is functional, organism-based. The following applies: for EC50: Betacoronavirus 1, HCT-8; for Activity: time 119.0 hrs.

Data set [9] concerns Human coronavirus NL63. The experiment in a line: Antiviral activity against HCoV NL63 infected in rhesus monkey LLC-MK2 cells assessed as inhibition of viral replication pre-infected for 1 hrs followed by compound administration and measured 120 hrs post-infection by MTS assay. The format is functional, organism-based. The settings on record: for Activity: time 119.0 hrs.
Data set [10] deals with Replicase polyprotein 1ab (Severe acute respiratory syndrome coronavirus 2) (UniProt P0DTD1). Briefly: Inhibition of SARS-Cov-2 RdRp expressed in HEK293T cells co-transfected with pCoV-Gluc and pCOVID-nsp12/7/8 at 0.5 to 2 uM incubated for 24 hrs by microplate luminometric analysis. The format is cell-based. The settings on record: dose 0.5-2 µM.
For data set [11], the system named is Human coronavirus OC43. The experiment in a line: Antiviral activity against HCoV OC43 infected in human HCT-8 cells assessed as inhibition of viral replication by measuring maximal inhibition at 50 uM pre-infected for 1 hrs followed by compound administration and measured 120 hrs post-infection by MTS assay relative to control. The following applies: time 119 hrs. The format is functional.

The subject of data set [12] is Human coronavirus NL63. Briefly: Antiviral activity against HCoV NL63 infected in rhesus monkey LLC-MK2 cells assessed as inhibition of viral replication by measuring maximal inhibition at 50 uM pre-infected for 1 hrs followed by compound administration and measured 120 hrs post-infection by MTS assay relative to control. The format is functional. The settings on record: time 119 hrs.

The record followed here is ChEMBL document CHEMBL6182860, “Discovery and rational optimization of 2, 2'-((1H-indole-2,3-diyl) bis (thio))diacetamide as novel SARS-CoV-2 RdRp inhibitors” (Bioorg Med Chem, 2025).

Bounds are passed on as bounds.

`O=C(CSc1[nH]c2ccccc2c1SCC(=O)Nc1ccc(Cl)c(Cl)c1)NCc1cccc(Cl)c1`: in data set [1], a half-maximal response (EC50) required 2140 nM. The CC50 at 24 h in data set [2] was over 100000 nM. The compound also displayed an inhibition in data set [3] of 85.1%.
`CCOc1ccccc1NC(=O)CSc1[nH]c2ccccc2c1SCC(=O)Nc1ccccc1OCC` showed an inhibition in data set [3] of 48.5%.
In data set [1], `Cc1ccc(CNC(=O)CSc2[nH]c3ccccc3c2SCC(=O)Nc2ccc(Cl)c(Cl)c2)cc1` registered an EC50 of 1600 nM. The CC50 at 24 h in data set [2] is over 100000 nM. This compound also gave an inhibition in [3] of 91.9%.
As to `O=C(CSc1[nH]c2ccccc2c1SCC(=O)Nc1ccc(Cl)c(Cl)c1)NCc1ccc(Cl)cc1`, the EC50 in data set [1] came to 1880 nM. In addition, in [2], the CC50 at 24 h was over 100000 nM. In data set [3], the inhibition came out at 96.6%.
Turning to `CCOc1ccccc1CNC(=O)CSc1[nH]c2ccccc2c1SCC(=O)Nc1ccc(Cl)c(Cl)c1`, the EC50 in data set [1] was determined as 1450 nM; in [4], 1690 nM. In addition, the inhibition result in [5] (dose 5-10 µM, time 24.0 hrs) was “Dose-dependent-effect”; in data set [6], “Active; Maximum Inhibitory Effect Observed”; in [7] (dose 5-10 µM, time 24.0 hrs), “Dose-dependent-effect”; in [3], 92%. Moreover, the CC50 at 24 h in [2] came out at 72500 nM.
With `CCOc1ccccc1NC(=O)CSc1c(SCC(=O)NCc2ccc(-c3ccccc3)cc2)[nH]c2ccccc12`, in data set [3], the inhibition was 39.7%.
Compound `CCOc1ccccc1NC(=O)CSc1c(SCC(=O)NCc2ccc(Cl)c(Cl)c2)[nH]c2ccccc12` returned an EC50 in data set [1] of 2590 nM. Moreover, in data set [2], the CC50 at 24 h is over 100000 nM. The compound further showed an inhibition in data set [3] of 84.8%.
Consider `O=C(CSc1[nH]c2ccccc2c1SCC(=O)Nc1ccc(Cl)c(Cl)c1)NCc1ccc(-c2ccccc2)cc1`, for which the concentration giving a half-maximal response (EC50) in [1] was determined as 1910 nM. The CC50 at 24 h in data set [2] was 75100 nM. The inhibition in data set [3] was 93.8%.
`O=C(CSc1[nH]c2ccccc2c1SCC(=O)Nc1ccc(Cl)c(Cl)c1)Nc1ccc(Cl)c(Cl)c1` returned an EC50 in data set [1] of 2430 nM. Moreover, in [2], the CC50 at 24 h is 95500 nM. In [3], this compound yielded an inhibition of 88.1%.
In the case of `CCOc1ccccc1NC(=O)CSc1c(SCC(=O)NCc2cccc(Cl)c2)[nH]c2ccccc12`, the EC50 came out at 570 nM in [1], 1280 nM with Human coronavirus OC43 [8], 850 nM in [4] and 4110 nM in the data set on Human coronavirus NL63 [9]. The Activity result in the data set with Human coronavirus OC43 [8] and in the data set with Human coronavirus NL63 [9] was “Dose-dependent-effect” each time. The inhibition entry was “Dose-dependent-effect” in [5] (dose 5-10 µM, time 24.0 hrs); “Active; Better Inhibitory Effect Than Remdesivir Observed” in data set [10]; “Dose-dependent-effect” in data set [7] (dose 5-10 µM, time 24.0 hrs); 94.8% in data set [3]. Also, the Imax in the data set on Human coronavirus OC43 [11] is on record as 90%; with Human coronavirus NL63 [12], 80%. Further, the CC50 at 24 h in [2] was over 100000 nM.
Consider `Cc1cccc(CNC(=O)CSc2[nH]c3ccccc3c2SCC(=O)Nc2ccc(Cl)c(Cl)c2)c1`, for which the EC50 in [1] was determined as 1550 nM; in [4] it was 1750 nM. In addition, the inhibition entry in [5] was “Dose-dependent-effect; Inhibition Effect Were Twice As Potent As Remdesivir At 10 Um”; in [6] it was “Active; Maximum Inhibitory Effect Observed”; in [7] it was “Dose-dependent-effect; Inhibition Effect Were Twice As Potent As Remdesivir At 10 Um”; in data set [3] it was 96%. Further, the CC50 at 24 h in [2] was determined as 90300 nM.
Compound `Cc1ccccc1CNC(=O)CSc1[nH]c2ccccc2c1SCC(=O)Nc1ccc(Cl)c(Cl)c1` showed an EC50 in data set [1] of 2440 nM. For the same compound, the CC50 at 24 h in [2] was over 100000 nM. The compound further came in with an inhibition in [3] of 94.4%.
The compound `CCOc1ccccc1NC(=O)CSc1c(SCC(=O)NCc2ccccc2OC)[nH]c2ccccc12` yielded an EC50 in [1] of 2360 nM. Besides, the cytotoxic concentration (CC50) at 24 h in data set [2] is over 100000 nM. Besides, in data set [3], the inhibition stood at 73.8%.
In turn, `O=C(CSc1c[nH]c2ccccc12)Nc1ccc(Cl)c(Cl)c1` returned an inhibition in data set [3] of 36%.
Same read-out and setting: with `CCOc1ccccc1NC(=O)CSc1c[nH]c2ccccc12` the figure was 4%.
`CCOc1ccccc1NC(=O)CSc1c(SCC(=O)NCc2ccccc2C)[nH]c2ccccc12` had a 50% effective concentration (EC50) in data set [1] of 2580 nM. In addition, the CC50 at 24 h in data set [2] is over 100000 nM. In data set [3], the inhibition is 77.5%.
For `O=C(CSc1[nH]c2ccccc2c1SCC(=O)Nc1ccc(Cl)c(Cl)c1)NCc1ccccc1` the same measures were 3130 nM, 87100 nM and 97%.
For `CCOc1ccccc1NC(=O)CSc1c(SCC(=O)NCc2ccc(Cl)cc2)[nH]c2ccccc12` the same measures were 1770 nM, over 100000 nM and 95.4%.
For `CCOc1ccccc1NC(=O)CSc1c(SCC(=O)NCc2ccccc2)[nH]c2ccccc12` the same measures were 2140 nM, over 100000 nM and 89.2%.
For the compound `CCOc1ccccc1CNC(=O)CSc1[nH]c2ccccc2c1SCC(=O)Nc1ccccc1OCC`, the inhibition in data set [3] came to 39.2%.
The compound `CCOc1ccccc1NC(=O)CSc1c(SCC(=O)NCc2ccc(C)cc2)[nH]c2ccccc12` displayed an EC50 in [1] of 2760 nM. Moreover, in [2], the CC50 at 24 h was over 100000 nM. Further, in data set [3], the inhibition is 88.3%.
For `O=C(CSc1[nH]c2ccccc2c1SCC(=O)Nc1ccc(Cl)c(Cl)c1)NCc1ccccc1Cl`, in that order: 2330 nM, over 100000 nM and 82%.
In the case of `CCOc1ccccc1NC(=O)CSc1c(SCC(=O)NCc2ccccc2F)[nH]c2ccccc12`, the EC50 in data set [1] is 710 nM; in the data set on Human coronavirus OC43 [8], 1520 nM; in data set [4], 1070 nM; with Human coronavirus NL63 [9], 13400 nM. For the same compound, the Activity entry in the data set on Human coronavirus OC43 [8] and in the data set with Human coronavirus NL63 [9] was “Dose-dependent-effect” in each case. The inhibition entry in data set [5] (dose 5-10 µM, time 24.0 hrs) was “Dose-dependent-effect”; in data set [10], “Active; Better Inhibitory Effect Than Remdesivir Observed”; in data set [7] (dose 5-10 µM, time 24.0 hrs), “Dose-dependent-effect”; in data set [3], 89.5%. Moreover, the Imax in the data set with Human coronavirus OC43 [11] turned out to be 90%; in the data set on Human coronavirus NL63 [12], 80%. Also, the CC50 at 24 h in data set [2] was over 100000 nM.
As to `COc1ccccc1CNC(=O)CSc1[nH]c2ccccc2c1SCC(=O)Nc1ccc(Cl)c(Cl)c1`, a half-maximal effect in data set [1] (EC50) was put at 2000 nM. The CC50 at 24 h in data set [2] was over 100000 nM. Besides, in data set [3], the inhibition is 95.5%.
For `O=C(CSc1[nH]c2ccccc2c1SCC(=O)Nc1ccc(Cl)c(Cl)c1)NCc1ccc(Cl)c(Cl)c1` the same measures were 2020 nM, over 100000 nM and 89.1%.
For `CCOc1ccccc1NC(=O)CSc1c(SCC(=O)NCc2ccccc2Cl)[nH]c2ccccc12`, in that order: 2550 nM, over 100000 nM and 80.8%.
Regarding `O=C(CSc1[nH]c2ccccc2c1SCC(=O)Nc1ccc(Cl)c(Cl)c1)NCc1ccccc1F`, the half-maximal effective concentration (EC50) in data set [1] was determined as 1440 nM; in [4], 1800 nM. Besides, the inhibition entry in data set [5] was “Dose-dependent-effect; Inhibition Effect Were Twice As Potent As Remdesivir At 10 Um”; in data set [6] it was “Active; Maximum Inhibitory Effect Observed”; in data set [7], “Dose-dependent-effect; Inhibition Effect Were Twice As Potent As Remdesivir At 10 Um”; in data set [3] it was 93.6%. For the same compound, the CC50 at 24 h in data set [2] was 78600 nM.
In [3], `CCOc1ccccc1NC(=O)CSc1c(SCC(=O)NCc2cccc(C)c2)[nH]c2ccccc12` returned an inhibition of 40.2%.
With `CCC(CC)COC(=O)[C@H](C)N[P@](=O)(OC[C@H]1O[C@@](C#N)(c2ccc3c(N)ncnn23)[C@H](O)[C@@H]1O)Oc1ccccc1`, the EC50 was 1790 nM with Human coronavirus OC43 [8] and 3420 nM with Human coronavirus NL63 [9]. The inhibition result in data set [5] (dose 5-10 µM, time 24.0 hrs) was “Dose-dependent-effect”; in [7] (dose 5-10 µM, time 24.0 hrs), “Dose-dependent-effect”; in data set [3] it was 87%. The cytotoxic concentration (CC50) at 24 h in data set [2] is over 100000 nM.

By EC50 is commonly meant the midpoint of the concentration-response curve. The term CC50 denotes the concentration that lowers cell viability or growth by half. What is called inhibition is the relative decrease from the control value, in per cent.
